Experimental data as given in article PMC5187537, “Antioxidant Activity of Oat Proteins Derived Peptides in Stressed Hepatic HepG2 Cells” (Antioxidants, 2016).
“And” between values parts separate entries of the source, which are not always exact repeats. Equal values may be shown once. Read-outs that look alike come from different tables or passages of the source.

How the values were obtained:
RAW 264.7 cells = conditions: peptides from fish; cited from earlier work
Text: The physiological role of GSH has long been of interest, particularly its antioxidant function due to the unique redox chemistry of its cysteinyl thiol residue. The oxidation of sulfhydryl groups on amino acids by ROS can lead to the formation of protein disulfide bonds, which can be reduced by GSH into individual sulfhydryl groups. GSH is also a substrate used by GPx in the reduction of peroxides and its concentration often reflects oxidative status of cells.

HepG2 cells = type: cell-based, Human; conditions: then 20 mM AAPH 24 h, MTT; for Cytoprotective effect against AAPH-induced damage: 50 or 100 µM peptide 24 h; for Increase of viability of cells compared to PC: 100 µM peptide 24 h, p < 0.05
Description: Human hepatocellular carcinoma (HepG2) cells were purchased from the American Type Culture Collection (ATCC; Manassas, VA, USA). They were cultured at 37 °C in a humidified incubator with 5% CO2 and 95% air. Dulbecco’s Minimal Essential Media (DMEM) supplemented with 10% (v/v) Fetal Bovine Serum was used for the maintenance of cells. […] The MTT (3-(4,5-dimethylthiazol-2-yl)-2,5-diphenyltetrazolium bromide) assay, as described in an earlier research, was used for cytotoxicity and cytoprotective tests. […] Following another 24 h incubation, cells were washed twice with 200 µL of PBS. Ten µL of MTT solution (5 mg/mL in PBS) and 100 µL of media were added to each well. After 1 h, MTT solution was removed, and 50 µL DMSO were added. Absorbances were recorded at 570 nm with 630 nm background subtraction using a BioTek Epoch™ microplate reader (Fisher Scientific, Nepean, ON, Canada). Untreated cells were used as negative control (NC) and cells treated with only AAPH were used as positive control (PC).

[1] = cited from earlier work
Description: Recent studies have, however, shown that, in addition to fibers and polyphenols, hydrolyzed proteins and peptides also contribute to the health promoting effect of cereals. […] Protein hydrolysates from oats, wheat, and rice have all shown antioxidant activities against common reactive oxygen species (ROS) in various systems. The peroxyl radical scavenging activity of oat proteins in the ... || Peroxyl radical (ROO^•) scavenging activities of P1–P7 were evaluated using the ORAC assay. […] ROO^• scavenging activities can be affected by sequences, molecular weights and the presence of amino acids that can form stable radical intermediates after donation of electrons or protons. The highest activities of P2 and P5 can be explained ...

[2] = test system: superoxide dismutase (SOD); test: Superoxide dismutase activity of lysates of AAPH-stressed cells; type: cell-based, Human; conditions: 50 µM peptide 24 h, then AAPH 24 h
Description: (§1) Cells were seeded at 1 × 10^6 cells/plate in 60 mm tissue culture plates and allowed to grow for 24 h. In each plate, cells were washed twice with 4 mL of PBS (pH 7.2), and treated with 4 mL peptide samples (P1, P2, P6, P7) dissolved in culture media at 50 or 100 µM for 24 h. After removal of peptide solutions, cells were washed twice with 4 mL of PBS/plate and treated with 4 mL of […] dissolved in culture media and allowed to incubate for 24 h. Cells in each culture plate were harvested by incubation (5 min) with 0.5 mL of 0.25% trypsin, addition of 1 mL of culture media and centrifugation at 1000× g for 5 min. Cell pellets were washed with ice cold PBS (500 µL each) until no pink color was observed, re-suspended in ice cold PBS (300 µL) for the superoxide dismutase (SOD) assay, 500 µL for glutathione peroxidase (GPx) and catalase (CAT) assays. For total glutathione assay, 300 µL of 5% ice cold sulfosalicylic acid bubbled with 100% nitrogen was used for cell lysis. Cells were lysed by sonication on ice for 1 min using a probe-type sonicator (Vibra-Cell, Sonics and Materials Inc., Newtown, CT, USA) pulsing at 15 s on and 10 s off cycles. Following centrifugation of cell lysate at 13,000× g (4 °C), pellets containing cell debris were discarded, while supernatants were used for determination of glutathione content. Protein contents were determined using a modified Lowry assay.
The SOD activity was measured based on the rate of reduction of nitroblue tetrazolium (2.24 mM) to formazan by xanthine oxidase (13.2 U/mL) at 560 nm. Eight concentrations of each cell extract ([…] protein/mL) or SOD standard (2–500 ng/mL) were used to obtain inhibition curves. Specifically, 20 µL of cell sample, or buffer (blank) was mixed with 160 µL of assay solution, and 20 µL of xanthine oxidase was added to initiate the reaction. The reduction of nitroblue tetrazolium to blue formazan by O2^−• generated in situ was followed at 560 nm. SOD activities were calculated and expressed as units per milligram of protein.

[3] = Oxygen radical absorbance capacity (ORAC) assay; conditions: fluorescein 0.08 µM, AAPH 150 mM, 37 °C, 50 min, potassium phosphate buffer pH 7.4 75 mM, peptides 100 and 200 µM; triplicate, mean ± STDEV
Description: The ORAC assay was performed as previously described. The decay of fluorescein (0.08 µM) by AAPH (150 mM) at 37 °C was recorded at 1 min intervals over 50 min using a BioTek™ FL × 800™ fluorescent microplate reader (Fisher Scientific, Nepean, ON, Canada) with fluorescence filters (excitation 485/20 nm, emission 528/20 nm). Potassium phosphate buffer (pH 7.4, 75 mM) was used to dissolve peptides (100 and 200 µM) and Trolox standards (6.25–100 µM). Data analysis was done with Gen5^TM software (Fisher Scientific, Nepean, ON, Canada), and ORAC values were expressed as µM Trolox Equivalent (TE)/µM peptide using the standard curve.

[4] = test system: glutathione peroxidase (GPx); test: Glutathione peroxidase activity of lysates of AAPH-stressed cells; type: cell-based, Human; conditions: for Effect on GPx activity of AAPH-stressed cells: then AAPH 24 h
Description: as §1
The activity of GPx was determined as previously described in a 96-well plate. Briefly, in each well, 187.5 µL of potassium phosphate buffer was mixed with 12.5 µL NADPH (4 mM) solution and 25 µL of cell lysates or buffer (blank), and incubated at 30 °C for 5 min. Then, 100 µL of 0.15% cumene hydroperoxide was added in each well to begin the reaction. The rate of disappearance of NADPH was followed at 340 nm for 5 min. The activity was expressed as Units of GPx activity/mg protein.

catalase (CAT) = test: Catalase activity of lysates of AAPH-stressed cells; type: cell-based, Human
Description: as §1, with “assay. To measure the catalase activity, 1790 µL potassium phosphate buffer (50 mM, pH 7.0) was mixed with 200 µL cell lysate in a UV cuvette. Ten µL of H2O2 (30%) was added, and removal of H2O2 by catalase was followed at 240 nm using a Cary 50 Bio UV-Vis spectrophotometer with 18-cell changer (Varian Inc., Mississauga, ON, Canada). The activity was expressed as a percentage of control.” for “assay.”

[5] = test system: glutathione (GSH) of HepG2 cells; test: Cellular glutathione, enzymatic recycling method; type: cell-based, Human; conditions: treatment with AAPH alone, 24 h
Description: as §1
The assay was based on the enzymatic recycling method adjusted for 96-well plates. All solutions were prepared in sodium phosphate buffer (125 mM, pH 7.5) that contained 6.3 mM EDTA (ethylenediaminetetraacetic acid). In summary, 60 µL of 0.35 mM NADPH and 10 µL of 6 mM DTNB were added to wells, this was followed by the addition of 20 µL cell lysate or glutathione (GSH) standard. To initiate the reaction, 10 µL of glutathione reductase (5 IU/mL) was added and the rate of reaction between GSH from cell lysate and DTNB was measured at 412 nm. Total glutathione of cell lysates was calculated based on a standard curve of glutathione.

[6] = peptide from beta-lactoglobulin
[7] = 50 µM peptide 24 h, then AAPH 24 h

CAAP [literature peptide from fish]
Increase of ROS due to AAPH (RAW 264.7 cells): attenuated

GQTV [P3, oat protein derived peptide GQTV, synthesized by GenScript]
Cytoprotective effect against AAPH-induced damage (HepG2 cells): no effect on oxidative damages

WYSLAMAASDI [literature peptide from beta-lactoglobulin]
ORAC activity [1, 6]: 2.6 µM/µM

MHIRL [literature peptide from beta-lactoglobulin]
ORAC activity [1, 6]: 0.306 µM TE/µM

DVNNNANQLEPR [P7, oat protein derived peptide …, synthesized by GenScript]
Effect on SOD activity compared to AAPH treated cells only (PC) [2]: did not affect the activity | Increase of viability of cells compared to PC (HepG2 cells): 8.3% | Cytoprotective effect against AAPH-induced damage (HepG2 cells): cytoprotective | ORAC value (peroxyl radical scavenging activity) [3]: 0.14–0.61 µM TE/µM and 0.14 ± 0.04 µM TE/µM | Effect on GPx activity of AAPH-stressed cells ([4]; 50 µM peptide 24 h): had no effect | Effect on GPx activity of AAPH-stressed cells ([4]; 100 µM peptide 24 h): only suppressed the damage caused by AAPH | Further increase of CAT activity compared to PC cells (catalase (CAT); [7]): 90%

YAEERYPIL [literature peptide from egg white]
ORAC activity ([1]; peptide from egg white): 3.5 µM TE/µM

VCSV [literature peptide from fish]
Increase of ROS due to AAPH (RAW 264.7 cells): attenuated

GQTVFNDRLRQGQLL [P4, oat protein derived peptide …, synthesized by GenScript]
Cytoprotective effect against AAPH-induced damage (HepG2 cells): no effect on oxidative damages | ORAC value (peroxyl radical scavenging activity) [3]: 0.14–0.61 µM TE/µM

CC(C)(N=NC(C)(C)C(=N)N)C(=N)N.Cl.Cl [AAPH, 2,2′-azobis(2-methylpropionamidine) dihydrochloride, reference compound]
Decrease of GSH [5]: 58.1% | Decrease of GPx activity relative to NC ([4]; HepG2 cells incubated with AAPH alone, 24 h): 18.2% | Increase of CAT activity (catalase (CAT); treatment with AAPH alone, 24 h): ~2 fold

FNDRLRQGQLL [P1, oat protein derived peptide …, synthesized by GenScript]
Effect on SOD activity compared to AAPH treated cells only (PC) [2]: did not affect the activity | Increase of viability of cells compared to PC (HepG2 cells): 15.5% | Cytoprotective effect against AAPH-induced damage (HepG2 cells): cytoprotective | ORAC value (peroxyl radical scavenging activity) [3]: 0.14–0.61 µM TE/µM | Effect on GPx activity of AAPH-stressed cells ([4]; 50 µM peptide 24 h): completely restored the activity | Effect on CAT activity compared to PC cells (catalase (CAT); [7]): no change was observed | Effect on CAT activity (catalase (CAT); 100 µM peptide 24 h, then AAPH 24 h): not affected by the peptide concentration
